Data as given in paper PMC4962012, “Pretrichodermamides D–F from a Marine Algicolous Fungus Penicillium sp. KMM 4672” (Marine Drugs, 2016).

Tests used:
[1] = MTT cytotoxicity assay, 22Rv1 cells; assay type: cell-based; conditions: human, 22Rv1 prostate cancer cells
Protocol: (§1) The human prostate cancer cells lines 22Rv1, PC-3, and LNCaP were purchased from ATCC. Cell lines were cultured according to the manufacturers instructions in 10% FBS/RPMI media (Invitrogen) with (for LNCaP) or without (for 22Rv1 and PC-3) 1 mM sodium pyruvate (Invitrogen). Cells were continuously kept in culture for a maximum of 3 months and were routinely inspected microscopically for stable phenotype and regularly checked for contamination with mycoplasma. Cell line authentication was performed by DSMZ (Braunschweig, Germany) using highly polymorphic short tandem repeat loci.
(§2) The in vitro cytotoxicity of individual substances was evaluated using the MTT (3-(4,5-dimethylthiazol-2-yl)-2,5-diphenyltetrazolium bromide) assay, which was performed as previously described. Cytotoxicity against CD-I mouse splenocytes was determined according to Freshney. Docetaxel was used as a reference substance.

[2] = MTT cytotoxicity assay, PC-3 cells; assay type: cell-based; conditions: human, PC-3 prostate cancer cells
Protocol: as §1, §2

[3] = MTT cytotoxicity assay, LNCaP cells; assay type: cell-based; conditions: human, LNCaP prostate cancer cells
Protocol: as §1, §2

[4] = tested on: human prostate cancer 22Rv1 cells; test: Apoptosis induction analysis (flow cytometry, PI staining, sub-G1 peak); assay type: cell-based; conditions: treatment with 1 µM for 48 h
Protocol: as §1
The cell cycle distribution was analyzed by flow cytometry using PI staining as described before with slight modifications. In brief, cells were pre-incubated overnight in 6-well plates (2 × 10^5 cells/well in 2 mL/well). The medium was changed to fresh medium containing different concentrations of the substances. After 48 h of treatment, cells were harvested with a trypsin-EDTA solution, fixed with 70% EtOH, stained, and analyzed by FACS. The results were quantitatively analyzed using Cell Quest Pro software (Version 5.2.1., BD Bioscience, Bedford, MA, USA). Cells appeared at sub-G1 peak were assumed as apoptotic.

[5] = tested on: CD-I mouse splenocytes; test: Cytotoxicity against mouse splenocytes; assay type: cell-based; conditions: non-malignant murine splenocytes
Protocol: as §2

[6] = tested on: CD-I mouse erythrocytes; test: Hemolytic activity; assay type: cell-based
Protocol: The hemolytic activity was evaluated using CD-I mouse erythrocytes as previously described.

[7] = tested on: a number of different cancer cells; design: method as in PMID 26039736; conditions: up to 10 µM; cited from earlier work

SMILES	IC50 [1] [nM]	IC50 [2] [nM]	IC50 [3] [nM]	apoptosis [4]	ED50 (cytotoxicity for splenocytes) [5] [nM]	hemolytic activity ([6]; murine erythrocytes, up to 100 µM)	ED50 (erythrocytes) ([6]; non-malignant murine erythrocytes) [nM]	cytotoxic effect against a number of different cancer cells [7]
COc1ccc(C2SSC34CC5(O)C(Cl)C=CC(O)C5ON3C(=O)C2N(C)C4=O)c(O)c1OC (centres unmarked) [compound 5, N-methylpretrichodermamide B]	510	5110	1760	31.3% ± 8.2	62100	did not show hemolitic activity	> 100000	did not show any cytotoxic effect
CC(=O)O[C@@]12CO[C@@H]1C[C@H](O)[C@@]1(C)C(=O)[C@H](O)C3=C(C)[C@@H](OC(=O)[C@H](O)[C@@H](NC(=O)OC(C)(C)C)c4ccccc4)C[C@@](O)([C@@H](OC(=O)c4ccccc4)[C@H]21)C3(C)C [docetaxel, reference compound]	13	15	4					
